Patent publication US20080194539A1, “Phenyl Diazepane Carboxamides and Annelated Phenyl Piperazine Carboxamides Containing Oxygen and Used as Dopamine D3 Antagonists” (Schwarz Pharma AG, priority 2004, published 2008)
Where two headings read alike, the source gives them in different places.

Key:
human D3 [1] = molecular target: T1, human D3 (Homo sapiens, UniProt P35462); assay: Radioligand binding, human D3 in CHO cell membranes, [3H]spiperone
T1 construct: expressed in transfected cells
Experimental: (§1) The biological activities of the compounds according to the invention were determined in radioligand binding investigations. All radioligand experiments were performed according to methods described by us (Hübner, H. et al. J. Med. Chem. 2000, 43, 756-762). For the measurement of the affinities to the receptors of the D2-family membrane homogenates of Chinese hamster ovary cells (CHO cells) were used, which stably express the human D2long-, the human D2short- (Hayes, G. et al. Mol. Endocrinol. 1992, 6, 920-926), the human D3- (Sokoloff, P. et al. Eur. J. Pharmacol. 1992, 225, 331-337) or the human D4.4-receptor sub-type, (Asghari, V. J. Neurochem. 1995, 65, 1157-1165) respectively. Basically the binding assays took place by incubation of the receptor homogenates with the radioligand [^3H]spiperone and the compounds under investigation in various concentrations. Determination of the affinities to the D1-receptor took place with native membrane homogenates, obtained from porcine striatum, and the D1-selective radioligands [^3H]SCH 23390.

human D3 [2] = molecular target: T1, human D3; conditions: compounds known from the prior art (WO 2004/004729), read-out: D3-bonding (Ki), comparative substance, cited from earlier work
human D2short = molecular target: T2, human D2short (Homo sapiens, UniProt P14416); assay: Radioligand binding, human D2short in CHO cell membranes, [3H]spiperone; conditions: human receptor in CHO membranes, average of 2-6 experiments in triplicate
T2 construct: expressed in transfected cells
T2 sequence (P14416 1-414 isoform P14416-2): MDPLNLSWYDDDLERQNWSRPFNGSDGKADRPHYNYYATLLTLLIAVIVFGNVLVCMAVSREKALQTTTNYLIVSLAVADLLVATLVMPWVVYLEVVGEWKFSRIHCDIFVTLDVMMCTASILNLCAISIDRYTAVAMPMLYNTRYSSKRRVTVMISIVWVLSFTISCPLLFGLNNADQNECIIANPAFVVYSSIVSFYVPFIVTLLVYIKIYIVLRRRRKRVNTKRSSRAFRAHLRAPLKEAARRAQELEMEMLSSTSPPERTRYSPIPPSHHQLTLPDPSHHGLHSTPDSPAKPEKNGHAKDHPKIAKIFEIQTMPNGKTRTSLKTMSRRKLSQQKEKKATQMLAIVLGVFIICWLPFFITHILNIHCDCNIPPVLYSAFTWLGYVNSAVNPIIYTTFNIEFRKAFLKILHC
Experimental: as §1

human D2long = molecular target: T3, human D2long (Homo sapiens, UniProt P14416); assay: Radioligand binding, human D2long in CHO cell membranes, [3H]spiperone; conditions: human receptor in CHO membranes, average of 2-6 experiments in triplicate
T3 construct: expressed in transfected cells
T3 sequence (P14416 whole entry): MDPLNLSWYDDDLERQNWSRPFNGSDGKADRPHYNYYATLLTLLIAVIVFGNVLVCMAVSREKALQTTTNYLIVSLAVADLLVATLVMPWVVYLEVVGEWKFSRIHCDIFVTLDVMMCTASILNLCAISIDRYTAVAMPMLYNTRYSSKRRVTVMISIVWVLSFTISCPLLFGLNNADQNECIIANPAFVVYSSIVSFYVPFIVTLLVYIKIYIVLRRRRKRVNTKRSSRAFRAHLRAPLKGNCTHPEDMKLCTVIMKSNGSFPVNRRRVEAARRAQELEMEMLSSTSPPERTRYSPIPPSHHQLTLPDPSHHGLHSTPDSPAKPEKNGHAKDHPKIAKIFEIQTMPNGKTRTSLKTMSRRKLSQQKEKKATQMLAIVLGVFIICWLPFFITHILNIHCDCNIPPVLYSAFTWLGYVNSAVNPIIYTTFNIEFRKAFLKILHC
Experimental: as §1

5-HT2 = molecular target: T4, 5-HT2 (Sus scrofa, UniProt P50129); assay: Radioligand binding, 5-HT2, porcine cortex membranes, [3H]ketanserin; conditions: average of 2-6 experiments in triplicate, read-out: Receptor binding Ki 5-HT2
T4 construct: we incubated porcine cortex-membrane preparations; from tissue; host or cells: porcine cortex
T4 sequence (P50129 whole entry): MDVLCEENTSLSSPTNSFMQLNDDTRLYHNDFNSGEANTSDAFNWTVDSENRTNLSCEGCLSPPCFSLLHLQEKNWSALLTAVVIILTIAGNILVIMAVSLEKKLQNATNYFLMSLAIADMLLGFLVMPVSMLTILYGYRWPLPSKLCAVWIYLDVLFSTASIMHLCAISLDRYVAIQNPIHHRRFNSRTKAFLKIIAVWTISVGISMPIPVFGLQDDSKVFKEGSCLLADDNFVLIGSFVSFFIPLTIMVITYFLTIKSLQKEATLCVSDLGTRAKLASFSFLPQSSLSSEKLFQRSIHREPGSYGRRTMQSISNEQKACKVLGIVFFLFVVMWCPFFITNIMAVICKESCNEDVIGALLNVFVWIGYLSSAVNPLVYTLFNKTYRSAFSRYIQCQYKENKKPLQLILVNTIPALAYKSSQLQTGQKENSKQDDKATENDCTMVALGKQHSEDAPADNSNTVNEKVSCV
Experimental: (§2) Measurement of the binding strengths of the compounds to the serotonin-receptor subtypes 5-HT1a and 5-HT2 was carried out according to methods described by us (Heindl, C. et al. Tetrahedron: Asymmetry 2003, 14, 3141-3152). For this we incubated porcine cortex-membrane preparations with the radioligands [^3H]8-OH-DPAT (for 5-HT1a) or [^3H]ketanserin (5-HT2) and the compounds in various concentrations. In the same way the affinity of the test compounds to the porcine α1-receptor was investigated, wherein porcine cortex-membrane preparations and the α1-selective radioligand [^3H]prazosin were used.

D1-receptor = molecular target: T5, D1-receptor (Sus scrofa, UniProt P50130); assay: Radioligand binding, D1-receptor, porcine striatum membranes, [3H]SCH 23390; conditions: average of 2-6 experiments in triplicate
T5 construct: native membrane homogenates, obtained from porcine striatum; from tissue; host or cells: porcine striatum
T5 sequence (P50130 whole entry): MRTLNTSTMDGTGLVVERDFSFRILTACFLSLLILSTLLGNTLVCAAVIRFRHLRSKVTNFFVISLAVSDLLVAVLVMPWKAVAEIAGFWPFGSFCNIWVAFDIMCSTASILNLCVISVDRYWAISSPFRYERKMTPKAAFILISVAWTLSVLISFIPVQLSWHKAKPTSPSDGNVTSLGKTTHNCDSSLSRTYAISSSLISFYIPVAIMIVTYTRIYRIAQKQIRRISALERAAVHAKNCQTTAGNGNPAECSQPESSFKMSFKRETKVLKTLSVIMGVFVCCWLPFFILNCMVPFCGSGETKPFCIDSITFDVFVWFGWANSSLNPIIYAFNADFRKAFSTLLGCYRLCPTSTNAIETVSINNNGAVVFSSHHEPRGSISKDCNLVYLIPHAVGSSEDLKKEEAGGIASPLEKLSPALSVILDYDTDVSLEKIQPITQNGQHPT
Experimental: as §1

porcine α1-receptor = assay: Radioligand binding, α1-receptor, porcine cortex membranes, [3H]prazosin; conditions: average of 2-6 experiments in triplicate, read-out: Receptor binding Ki alpha1
Experimental: as §2

5-HT1a = molecular target: T6, 5-HT1a (Sus scrofa, UniProt A0A4X1UTF5); assay: Radioligand binding, 5-HT1a, porcine cortex membranes, [3H]8-OH-DPAT; conditions: porcine 5-HT1a, average of 2-6 experiments in triplicate, read-out: Receptor binding Ki 5-HT1
T6 construct: we incubated porcine cortex-membrane preparations; from tissue; host or cells: porcine cortex
T6 sequence (A0A4X1UTF5 1-422): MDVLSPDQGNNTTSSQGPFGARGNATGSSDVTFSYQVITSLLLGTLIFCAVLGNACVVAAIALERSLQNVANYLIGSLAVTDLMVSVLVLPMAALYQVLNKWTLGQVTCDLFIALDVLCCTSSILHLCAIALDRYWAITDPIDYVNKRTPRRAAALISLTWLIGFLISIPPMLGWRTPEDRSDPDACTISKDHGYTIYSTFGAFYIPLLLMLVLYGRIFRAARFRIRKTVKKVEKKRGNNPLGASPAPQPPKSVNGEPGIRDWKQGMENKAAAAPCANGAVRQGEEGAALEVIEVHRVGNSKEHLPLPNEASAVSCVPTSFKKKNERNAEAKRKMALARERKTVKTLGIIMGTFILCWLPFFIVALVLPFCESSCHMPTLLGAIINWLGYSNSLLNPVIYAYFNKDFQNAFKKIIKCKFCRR
Experimental: as §2

human D4.4 = molecular target: T7, human D4.4 (Homo sapiens, UniProt P21917); assay: Radioligand binding, human D4.4 in CHO cell membranes, [3H]spiperone; conditions: human D4.4 in CHO membranes, average of 2-6 experiments in triplicate, read-out: Receptor binding Ki D4
T7 construct: expressed in transfected cells
T7 sequence (P21917 1-419): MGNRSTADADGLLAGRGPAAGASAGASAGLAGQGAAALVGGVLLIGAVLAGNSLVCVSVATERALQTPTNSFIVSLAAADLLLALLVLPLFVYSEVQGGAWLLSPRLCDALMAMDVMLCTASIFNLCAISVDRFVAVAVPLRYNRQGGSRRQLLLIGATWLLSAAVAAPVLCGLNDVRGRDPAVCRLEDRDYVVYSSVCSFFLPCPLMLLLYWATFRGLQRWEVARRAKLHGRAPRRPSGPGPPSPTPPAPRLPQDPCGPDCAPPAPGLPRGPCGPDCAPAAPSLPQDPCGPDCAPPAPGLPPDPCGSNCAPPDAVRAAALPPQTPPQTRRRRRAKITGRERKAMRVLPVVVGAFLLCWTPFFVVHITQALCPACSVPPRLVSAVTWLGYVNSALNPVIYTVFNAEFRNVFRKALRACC
Experimental: as §1

dopamine D3 receptor = molecular target: T8, dopamine D3 receptor (Homo sapiens, UniProt P35462); assay: Mitogenesis assay, [3H]thymidine incorporation in D3 receptor-expressing cells; format: cell-based; conditions: for Agonistic activity: with reference to the maximum effect of the full agonist quinpirol; for EC50: dose-effect curve, seven concentrations in quadruplicate
T8 construct: expressed in transfected cells
T8 sequence (P35462 whole entry): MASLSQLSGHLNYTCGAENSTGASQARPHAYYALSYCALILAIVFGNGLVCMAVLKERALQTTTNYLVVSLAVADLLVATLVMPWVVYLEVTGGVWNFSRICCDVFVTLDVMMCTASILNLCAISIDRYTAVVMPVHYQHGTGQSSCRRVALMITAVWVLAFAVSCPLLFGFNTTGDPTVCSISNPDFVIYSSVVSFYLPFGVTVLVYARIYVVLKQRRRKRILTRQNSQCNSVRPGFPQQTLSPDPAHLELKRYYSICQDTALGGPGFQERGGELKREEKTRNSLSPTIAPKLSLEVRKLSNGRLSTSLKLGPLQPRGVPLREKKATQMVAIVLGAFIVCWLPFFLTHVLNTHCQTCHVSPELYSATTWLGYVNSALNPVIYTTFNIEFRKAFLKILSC
Experimental: Here various concentrations of the compounds under investigation were incubated with D3 receptor-expressing cells and then the receptor-mediated stimulation of the mitogenesis rate was measured by incorporation of the radioactive marker [^3H]thymidine.

[3] = Table 1a, read-out: D3-bonding (Ki), substance according to the invention
[4] = human receptor in CHO membranes, [3H]spiperone, average of 2-6 experiments in triplicate, read-out: Receptor binding Ki D3
[5] = Table 1b, read-out: D3-bonding (Ki), substance according to the invention
[6] = Table 1c, read-out: D3-bonding (Ki), substance according to the invention

T1 sequence (P35462 whole entry): as above

Ki (human D3 [1]; [3]) [nM]	Ki (human D2short) [nM]	Ki (human D2long) [nM]	Ki (5-HT2) [nM]	Ki (D1-receptor) [nM]	Ki (porcine α1-receptor) [nM]	Ki (5-HT1a) [nM]	Ki (human D3 [1]; [4]) [nM]	Ki (human D4.4) [nM]	Agonistic activity (dopamine D3 receptor) [%]	Ki (human D3 [1]; [6]) [nM]	Compound	further results
0.052	–	–	–	–	–	–	–	–	–	–	O=C(NCCCCN1CCN(c2cccc3c2OCCCC3)CC1)c1cc2ccccc2[nH]1 [Example 16, N-(4-(4-(2,3,4,5-tetrahydrobenzo[b]oxepin-9-yl)piperazin-1-yl)butyl)indol-2-ylcarbamide]	–
–	–	–	–	–	–	–	–	–	–	–	N#Cc1ccc2sc(C(=O)NCCCCN3CCN(c4cccc(Cl)c4Cl)CC3)cc2c1	Ki (human D3 [2]; Table 1c): 0.25 nM
0.075	–	–	–	–	–	–	–	–	–	–	N#Cc1ccc2cc(C(=O)NCCCCN3CCN(c4cccc5c4OCCCC5)CC3)[nH]c2c1 [Example 17, N-(4-(4-(2,3,4,5-tetrahydrobenzo[b]oxepin-9-yl)piperazin-1-yl)butyl)-6-cyanoindol-2-ylcarbamide]	–
0.17	22	42	110	290	2.3	20	0.17	34	0	–	O=C(NCCCCN1CCN(c2cccc3c2OCCC3)CC1)c1cc2ccccc2[nH]1 [Example 4, N-(4-(4-(chroman-8-yl)piperazin-1-yl)butyl)indol-2-ylcarbamide]	–
–	–	–	–	–	–	–	–	–	–	–	N#Cc1ccc2cc(C(=O)NCCCCN3CCN(c4cccc(Cl)c4Cl)CC3)[nH]c2c1	Ki (human D3 [2]; Table 1a): 0.35 nM
0.35	27	45	110	300	2	30	0.16	22	0	–	O=C(NCCCCN1CCN(c2cccc3c2OCC3)CC1)c1cc2ccccc2[nH]1 [Example 2, N-(4-(4-(2,3-dihydrobenzofuran-7-yl)piperazin-1-yl)butyl)indol-2-ylcarbamide]	–
–	–	–	–	–	–	–	–	–	–	–	O=C(NCCCCN1CCN(c2cccc3c2OCCCC3)CC1)c1cc2ccccc2o1 [Example 14, N-(4-(4-(2,3,4,5-tetrahydrobenzo[b]oxepin-9-yl)piperazin-1-yl)butyl)benzofuran-2-ylcarbamide]	Ki (human D3 [1]; [5]): 0.089 nM
–	–	–	–	–	–	–	–	–	–	0.098	O=C(NCCCCN1CCN(c2cccc3c2OCCCC3)CC1)c1cc2ccccc2s1 [Example 12, N-(4-(4-(2,3,4,5-tetrahydrobenzo[b]oxepin-9-yl)piperazin-1-yl)butyl)benzo[b]thiophen-2-ylcarbamide]	melting point: 124 °C
–	–	–	–	–	–	–	–	–	–	0.097	N#Cc1ccc2sc(C(=O)NCCCCN3CCN(c4cccc5c4OCCCC5)CC3)cc2c1 [Example 13, N-(4-(4-(2,3,4,5-tetrahydrobenzo[b]oxepin-9-yl)piperazin-1-yl)butyl)-5-cyanobenzo[b]thiophen-2-ylcarbamide]	–
–	83	110	77	300	4.6	17	0.35	50	38	0.16	O=C(NCCCCN1CCN(c2cccc3c2OCCC3)CC1)c1cc2ccccc2s1 [Example 3, N-(4-(4-(chroman-8-yl)piperazin-1-yl)butyl)benzo[b]thiophen-2-ylcarbamide]	melting point: 134 °C; EC50 (dopamine D3 receptor): 1.8 nM
–	–	–	–	–	–	–	–	–	–	–	N-(4-(4-(2,3,4,5-tetrahydrobenzo[b]oxepin-9-yl)piperazin-1-yl)butyl)-5-bromobenzofuran-2-ylcarbamide [Example 15]	Ki (human D3 [1]; [5]): 0.11 nM

Compound	Ki (human D3 [1]; [3]) [nM]	Ki (human D2short) [nM]	Ki (human D2long) [nM]	Ki (5-HT2) [nM]	Ki (D1-receptor) [nM]	Ki (porcine α1-receptor) [nM]	Ki (5-HT1a) [nM]	Ki (human D3 [1]; [4]) [nM]	Ki (human D4.4) [nM]	Agonistic activity (dopamine D3 receptor) [%]	Ki (human D3 [1]; [6]) [nM]	further results
O=C(NCCCCN1CCN(c2cccc3c2OCC3)CC1)c1cc2ccccc2s1 [Example 1, N-(4-(4-(2,3-dihydrobenzofuran-7-yl)piperazin-1-yl)butyl)benzo[b]thiophen-2-ylcarbamide]	–	50	73	100	260	4.2	18	0.31	65	42	0.31	EC50 (dopamine D3 receptor): 3.2 nM
